Assay results reported in patent US11512073B2, “Benzimidazole derivatives, pharmaceutical composition comprising the same, and use thereof” (Chongqing University of Arts and Sciences, priority 2020, dated 2022).
Residues, ends and D or L forms follow the SMILES beside them. *: point of attachment. Cbz = O=C(OCc1ccccc1)*; CH2F = FC*

Tested on: TNBC cells
Test: MTT cell viability assay, statements for both TNBC lines
Type: cell-based, Human
Settings: Z-VAD-FMK 20 μM with compound 7a 20 μM, 48 h
Method: Compounds were dissolved in a hydrous dimethylsulfoxide (DMSO, Life technologies) to obtain a 50 mM stock solution, which was then added to the culture medium at a concentration range of 6.25-100 μM. […] Z-VAD-FMK was purchased from Selleckchem (Houston, Tex.); The reagents including 3-(4,5-dimethylthiazol-2-yl)-2,5-diphenyltetrazolium bromide (MTT), dimethyl sulfoxide (DMSO), penicillin, streptomycin, propidium iodide (PI) were purchased from Sigma-Aldrich (MO, USA); All the primary antibodies used in this study were from Cell Signaling Technology (MA, USA) and the secondary antibodies were from LI-COR Biosciences (NE, USA).
Human triple negative breast cancer cell lines MDA-MB-231 and MDA-MB-468 were purchased from the American Type Culture Collection (ATCC, VA, USA). These cells were cultured in high-glucose DMEM (Gibco, USA) supplemented with 10% fetal bovine serum (FBS, Gibco) and 1% penicillin/streptomycin (Gibco) at 37° C. in a humidified incubator containing 5% CO2.
The antiproliferative activity of compounds was measured with the MTT assay. […] The absorbance value was determined at 570 nm using a microplate reader (Bio-Tek, VT, USA). Data were analyzed by GraphPad Prism 6. […]

## COC(=O)C[C@H](NC(=O)[C@H](C)NC(=O)[C@@H](NC(=O)OCc1ccccc1)C(C)C)C(=O)CF [Z-VAD-FMK, reference compound] (Cbz-Val-Ala-Asp(OMe)-CH2F)
  rescue of compound 7a-induced apoptosis (cell viability): partially rescue cell apoptosis induced by compound 7a
